{"source": "patent US8959984B2", "about": "“Proteome-wide quantification of small molecule binding to cellular target proteins” (priority 2007, dated 2015)", "key": {"CaMKK1": {"biological_target": "T1, CaMKK1 (Homo sapiens, UniProt Q8N5S9)", "T1 construct": "endogenous in cells; host or cells: HeLa S3", "T1 sequence (Q8N5S9 whole entry)": "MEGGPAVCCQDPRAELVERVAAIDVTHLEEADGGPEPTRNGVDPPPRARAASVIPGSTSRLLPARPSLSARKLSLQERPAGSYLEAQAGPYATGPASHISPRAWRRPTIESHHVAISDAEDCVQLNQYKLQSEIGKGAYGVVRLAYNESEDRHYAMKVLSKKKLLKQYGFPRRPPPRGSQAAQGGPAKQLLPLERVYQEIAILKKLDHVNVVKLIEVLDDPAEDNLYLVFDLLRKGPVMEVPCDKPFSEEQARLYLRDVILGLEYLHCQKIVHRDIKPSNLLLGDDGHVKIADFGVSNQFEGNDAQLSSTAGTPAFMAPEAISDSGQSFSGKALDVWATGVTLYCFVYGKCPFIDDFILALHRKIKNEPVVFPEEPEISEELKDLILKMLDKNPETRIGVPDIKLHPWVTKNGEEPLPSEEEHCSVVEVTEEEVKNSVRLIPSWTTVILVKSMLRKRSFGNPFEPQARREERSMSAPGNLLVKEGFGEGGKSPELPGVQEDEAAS", "test": "binding to immobilized V16742 (IVA1/IVA2, HeLa lysate, MS)"}, "MAP3K2": {"biological_target": "T2, MAP3K2 (Homo sapiens, UniProt Q9Y2U5)", "T2 construct": "endogenous in cells; host or cells: HeLa S3", "T2 sequence (Q9Y2U5 1-619)": "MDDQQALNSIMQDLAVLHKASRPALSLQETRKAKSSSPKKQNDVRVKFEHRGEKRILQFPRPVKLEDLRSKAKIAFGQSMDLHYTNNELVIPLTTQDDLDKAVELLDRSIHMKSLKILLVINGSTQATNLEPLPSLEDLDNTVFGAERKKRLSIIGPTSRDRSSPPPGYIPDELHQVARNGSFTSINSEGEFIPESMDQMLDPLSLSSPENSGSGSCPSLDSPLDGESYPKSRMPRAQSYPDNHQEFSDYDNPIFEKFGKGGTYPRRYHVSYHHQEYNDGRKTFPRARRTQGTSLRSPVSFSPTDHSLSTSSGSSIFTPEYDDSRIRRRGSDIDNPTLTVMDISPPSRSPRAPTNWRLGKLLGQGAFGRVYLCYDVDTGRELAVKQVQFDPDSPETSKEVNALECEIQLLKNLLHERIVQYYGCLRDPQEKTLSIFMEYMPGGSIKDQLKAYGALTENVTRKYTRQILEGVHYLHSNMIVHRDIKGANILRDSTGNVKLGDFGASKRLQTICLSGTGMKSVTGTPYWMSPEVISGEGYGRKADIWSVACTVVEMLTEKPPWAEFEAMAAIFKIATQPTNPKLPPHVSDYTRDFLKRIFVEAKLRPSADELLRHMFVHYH", "test": "binding to immobilized V16742 (IVA1/IVA2, HeLa lysate, MS)"}, "DYRK1A (IPI00219250)": {"biological_target": "T3, DYRK1A (IPI00219250) (Homo sapiens, UniProt Q13627)", "T3 construct": "endogenous in cells; host or cells: HeLa S3 cell lysate", "test": "binding to VI16742 beads (HeLa lysate, SILAC MS)"}, "BRD3": {"biological_target": "BRD3 (Homo sapiens, UniProt Q15059)", "sequence (Q15059 whole entry)": "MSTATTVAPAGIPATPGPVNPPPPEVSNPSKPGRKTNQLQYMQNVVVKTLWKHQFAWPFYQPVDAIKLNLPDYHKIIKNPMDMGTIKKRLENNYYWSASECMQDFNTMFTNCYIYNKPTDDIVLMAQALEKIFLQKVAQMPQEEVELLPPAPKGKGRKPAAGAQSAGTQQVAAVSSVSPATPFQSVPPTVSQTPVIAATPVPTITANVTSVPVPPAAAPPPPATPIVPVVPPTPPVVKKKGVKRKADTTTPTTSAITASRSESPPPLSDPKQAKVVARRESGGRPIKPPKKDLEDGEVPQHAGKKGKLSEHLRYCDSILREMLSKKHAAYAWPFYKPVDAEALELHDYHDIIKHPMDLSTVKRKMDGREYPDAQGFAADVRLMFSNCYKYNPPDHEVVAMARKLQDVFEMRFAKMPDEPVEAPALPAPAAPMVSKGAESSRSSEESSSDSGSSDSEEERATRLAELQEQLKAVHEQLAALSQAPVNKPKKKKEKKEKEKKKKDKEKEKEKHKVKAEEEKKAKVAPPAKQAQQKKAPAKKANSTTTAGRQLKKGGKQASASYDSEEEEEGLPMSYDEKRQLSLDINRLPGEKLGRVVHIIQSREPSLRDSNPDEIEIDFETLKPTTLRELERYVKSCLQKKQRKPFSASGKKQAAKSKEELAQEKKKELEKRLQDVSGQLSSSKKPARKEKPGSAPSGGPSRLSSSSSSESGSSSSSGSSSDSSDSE", "test": "binding to immobilized V16742 (IVA1/IVA2, HeLa lysate, MS)"}, "CK1e": {"biological_target": "CK1e (Homo sapiens, UniProt P49674)", "sequence (P49674 whole entry)": "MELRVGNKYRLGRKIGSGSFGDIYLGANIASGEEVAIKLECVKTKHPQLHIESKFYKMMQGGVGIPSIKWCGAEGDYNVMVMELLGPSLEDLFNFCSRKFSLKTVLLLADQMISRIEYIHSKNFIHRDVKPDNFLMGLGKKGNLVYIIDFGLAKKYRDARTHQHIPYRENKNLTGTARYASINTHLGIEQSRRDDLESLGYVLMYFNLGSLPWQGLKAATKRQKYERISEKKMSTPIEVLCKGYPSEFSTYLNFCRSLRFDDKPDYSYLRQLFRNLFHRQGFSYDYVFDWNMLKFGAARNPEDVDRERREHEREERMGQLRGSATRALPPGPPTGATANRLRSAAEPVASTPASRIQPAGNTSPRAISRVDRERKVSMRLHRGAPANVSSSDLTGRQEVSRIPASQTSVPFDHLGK", "test": "binding to immobilized V16742 (IVA1/IVA2, HeLa lysate, MS)", "protocol": "Using the three populations of SILAC-labelled cells and the three different inhibitor resins, two parallel experiments termed as IVA1 (In Vitro Association, Setting 1) and IVA2 (In Vitro Association, Setting 2) were performed. […] In IVA2, SILAC encoded HeLa cells lysates were subjected to two parallel rounds of consecutive affinity purification at the highest ligand density where the supernatant left behind after the first IVA was used for the second round of IVA. An additional incubation of Hela cell lysate with control beads devoid of immobilized inhibitor was also performed to distinguish background binders.\nA common IPI identifier template was assigned to peptides based on the MASCOT html-output file for the IVA2 setting in first experiment. The proteins hits identified based on unique peptides were filtered for mass error and MASCOT score. Eventually, the hits identified in both first and second IVA2 experiments were quantified for IVA2 setting of first experiment by MSQuant. […] A next round of sorting was done to filter out protein hits that are less than 50% enriched in the IVA second round compared to IVA first round. This is because at enrichment below 50%, there could be significant errors in deducing kd values for the corresponding targets. […] The same set of targets was also quantified in IVA2 and IVA1 settings of an independent second experiment."}, "[1]": {"biological_target": "p38a (MAPK14, IPI00002857) (Homo sapiens, UniProt Q16539)", "sequence (Q16539 whole entry)": "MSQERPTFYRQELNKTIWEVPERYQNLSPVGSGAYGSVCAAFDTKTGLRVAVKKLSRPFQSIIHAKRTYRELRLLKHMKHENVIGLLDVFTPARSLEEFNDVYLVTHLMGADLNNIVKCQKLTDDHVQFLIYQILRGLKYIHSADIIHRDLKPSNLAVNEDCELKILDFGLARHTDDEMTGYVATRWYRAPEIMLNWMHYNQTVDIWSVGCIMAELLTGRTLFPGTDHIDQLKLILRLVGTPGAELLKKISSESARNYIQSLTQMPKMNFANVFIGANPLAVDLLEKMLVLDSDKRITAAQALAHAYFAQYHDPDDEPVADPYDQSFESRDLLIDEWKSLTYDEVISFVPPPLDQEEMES", "test": "gefitinib competition against AX14596 beads (HeLa lysate, SILAC MS)", "assay_type": "binding"}, "CaMK2g (CAMK2G)": {"biological_target": "CaMK2g (CAMK2G) (Homo sapiens, UniProt Q13555)", "sequence (Q13555 whole entry)": "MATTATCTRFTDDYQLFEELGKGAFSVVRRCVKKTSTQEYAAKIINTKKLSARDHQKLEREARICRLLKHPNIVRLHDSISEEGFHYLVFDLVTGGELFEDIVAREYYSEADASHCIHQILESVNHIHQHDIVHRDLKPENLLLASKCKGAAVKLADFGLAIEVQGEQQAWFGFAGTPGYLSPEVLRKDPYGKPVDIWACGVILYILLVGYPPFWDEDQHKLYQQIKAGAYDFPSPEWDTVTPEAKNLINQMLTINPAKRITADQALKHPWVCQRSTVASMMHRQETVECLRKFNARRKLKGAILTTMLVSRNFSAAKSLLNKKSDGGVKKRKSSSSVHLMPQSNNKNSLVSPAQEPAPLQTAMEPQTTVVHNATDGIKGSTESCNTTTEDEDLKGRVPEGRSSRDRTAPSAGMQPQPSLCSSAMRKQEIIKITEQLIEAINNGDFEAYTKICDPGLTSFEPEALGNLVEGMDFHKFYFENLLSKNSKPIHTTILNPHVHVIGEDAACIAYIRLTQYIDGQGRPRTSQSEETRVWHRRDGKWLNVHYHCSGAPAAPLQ"}, "ACAD10": {"biological_target": "T4, ACAD10 (Homo sapiens, UniProt Q6JQN1)", "T4 sequence (Q6JQN1 1-1059)": "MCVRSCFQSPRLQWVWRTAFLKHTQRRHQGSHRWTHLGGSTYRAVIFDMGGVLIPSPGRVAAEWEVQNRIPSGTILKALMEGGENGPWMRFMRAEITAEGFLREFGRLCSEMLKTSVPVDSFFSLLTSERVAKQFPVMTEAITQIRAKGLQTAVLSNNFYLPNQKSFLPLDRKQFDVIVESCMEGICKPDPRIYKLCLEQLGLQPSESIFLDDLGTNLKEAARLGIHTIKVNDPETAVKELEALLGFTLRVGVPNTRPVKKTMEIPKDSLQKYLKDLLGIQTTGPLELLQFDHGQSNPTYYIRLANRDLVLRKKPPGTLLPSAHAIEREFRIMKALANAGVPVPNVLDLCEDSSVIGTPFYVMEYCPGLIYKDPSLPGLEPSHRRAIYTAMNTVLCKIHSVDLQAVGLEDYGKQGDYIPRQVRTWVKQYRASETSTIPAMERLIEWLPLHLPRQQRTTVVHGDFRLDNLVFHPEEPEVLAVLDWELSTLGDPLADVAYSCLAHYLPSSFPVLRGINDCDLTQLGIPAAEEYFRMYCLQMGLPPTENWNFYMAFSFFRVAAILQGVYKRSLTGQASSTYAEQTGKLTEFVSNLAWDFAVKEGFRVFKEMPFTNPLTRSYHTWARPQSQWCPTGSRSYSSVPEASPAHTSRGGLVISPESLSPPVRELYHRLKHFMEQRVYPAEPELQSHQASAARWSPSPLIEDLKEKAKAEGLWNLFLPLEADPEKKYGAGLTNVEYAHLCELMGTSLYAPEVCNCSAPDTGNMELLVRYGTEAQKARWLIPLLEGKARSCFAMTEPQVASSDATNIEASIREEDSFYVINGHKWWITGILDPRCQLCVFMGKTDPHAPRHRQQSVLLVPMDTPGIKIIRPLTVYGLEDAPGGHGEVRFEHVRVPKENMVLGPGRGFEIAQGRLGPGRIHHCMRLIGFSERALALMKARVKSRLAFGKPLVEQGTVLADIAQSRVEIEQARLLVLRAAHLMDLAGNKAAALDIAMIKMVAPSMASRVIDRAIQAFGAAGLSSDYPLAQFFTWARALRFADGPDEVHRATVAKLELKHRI"}, "CK1e (CSNK1E)": {"biological_target": "CK1e (CSNK1E) (Homo sapiens, UniProt P49674)", "sequence (P49674 whole entry)": "as the sequence (P49674 whole entry) above"}, "[2]": {"conditions": "average of two experiments, read-out: Kd Avg"}}, "note": "Read-outs that look alike come from different tables or passages of the source."}
{"smiles": "CC(C)n1c(=O)ccc2cnc(Nc3ccc(OCCN)cc3)nc21", "note": "[V16742]", "values": [{"measurement": "Percent bound at various 16742 conc", "setting": "CaMKK1; Experiment 1, 1.87 μM 16742", "result": 2.08, "unit": "%"}, {"measurement": "Percent bound at various 16742 conc", "setting": "CaMKK1; Experiment 1, 8.74 μM 16742", "result": 10.67, "unit": "%"}, {"measurement": "Percent bound at various 16742 conc", "setting": "CaMKK1; Experiment 1, 52 μM 16742", "result": 63.34, "unit": "%"}, {"measurement": "Kd", "setting": "CaMKK1; Experiment 1, read-out: Kd", "result": 37.9, "unit": "µM"}, {"measurement": "Percent bound at various 16742 conc", "setting": "CaMKK1; Experiment 2, 1.87 μM 16742", "result": 1.46, "unit": "%"}, {"measurement": "Percent bound at various 16742 conc", "setting": "CaMKK1; Experiment 2, 8.74 μM 16742", "result": 6.65, "unit": "%"}, {"measurement": "Percent bound at various 16742 conc", "setting": "CaMKK1; Experiment 2, 52 μM 16742", "result": 47.32, "unit": "%"}, {"measurement": "Kd", "setting": "CaMKK1; Experiment 2, read-out: Kd", "result": 63.9, "unit": "µM"}, {"measurement": "Kd", "setting": "CaMKK1; [2]", "result": 50.9, "unit": "µM"}, {"measurement": "Percent bound at various 16742 conc", "setting": "MAP3K2; Experiment 1, 1.87 μM 16742", "result": 4.06, "unit": "%"}, {"measurement": "Percent bound at various 16742 conc", "setting": "MAP3K2; Experiment 1, 8.74 μM 16742", "result": 14.72, "unit": "%"}, {"measurement": "Percent bound at various 16742 conc", "setting": "MAP3K2; Experiment 1, 52 μM 16742", "result": 49.07, "unit": "%"}, {"measurement": "Kd", "setting": "MAP3K2; Experiment 1, read-out: Kd", "result": 53.2, "unit": "µM"}, {"measurement": "Percent bound at various 16742 conc", "setting": "MAP3K2; Experiment 2, 1.87 μM 16742", "result": 3.52, "unit": "%"}, {"measurement": "Percent bound at various 16742 conc", "setting": "MAP3K2; Experiment 2, 8.74 μM 16742", "result": 14.47, "unit": "%"}, {"measurement": "Percent bound at various 16742 conc", "setting": "MAP3K2; Experiment 2, 52 μM 16742", "result": 48.40, "unit": "%"}, {"measurement": "Kd", "setting": "MAP3K2; Experiment 2, read-out: Kd", "result": 54.7, "unit": "µM"}, {"measurement": "Kd", "setting": "MAP3K2; [2]", "result": 53.9, "unit": "µM"}, {"measurement": "rAVERAGE (CTRL/1 INC)", "setting": "DYRK1A (IPI00219250); control beads vs first incubation", "result": 0.08}, {"measurement": "Ki", "setting": "DYRK1A (IPI00219250); immobilized VI16742", "result": 83.8, "unit": "µM"}, {"measurement": "rAVERAGE (2 INC/1 INC)", "setting": "DYRK1A (IPI00219250); second vs first incubation", "result": 0.62}]}
{"smiles": "CC(C)n1c(=O)ccc2cnc(Nc3ccc(OCCN)cc3)nc21", "note": "[compound 16742]", "values": [{"measurement": "Percent bound at 1.87 μM 16742 conc", "setting": "BRD3; EXPERIMENT 1", "result": 0.00, "unit": "%"}, {"measurement": "Percent bound at 8.74 μM 16742 conc", "setting": "BRD3; EXPERIMENT 1", "result": 0.00, "unit": "%"}, {"measurement": "Percent bound at 52 μM 16742 conc", "setting": "BRD3; EXPERIMENT 1", "result": 71.55, "unit": "%"}, {"measurement": "Kd", "setting": "BRD3; EXPERIMENT 1, read-out: Kd", "result": 37, "unit": "µM"}, {"measurement": "Percent bound at 1.87 μM 16742 conc", "setting": "BRD3; EXPERIMENT 2", "result": 8.24, "unit": "%"}, {"measurement": "Percent bound at 8.74 μM 16742 conc", "setting": "BRD3; EXPERIMENT 2", "result": 11.86, "unit": "%"}, {"measurement": "Percent bound at 52 μM 16742 conc", "setting": "BRD3; EXPERIMENT 2", "result": 65.82, "unit": "%"}, {"measurement": "Kd", "setting": "BRD3; EXPERIMENT 2, read-out: Kd", "result": 33.9, "unit": "µM"}, {"measurement": "Kd", "setting": "BRD3; read-out: Kd Avg", "result": 35.4, "unit": "µM"}, {"measurement": "Kd", "setting": "CK1e", "result": 13, "unit": "µM"}, {"measurement": "Percent bound at 1.87 μM 16742 conc", "setting": "CK1e; CK1e, EXPERIMENT 1", "result": 6.91, "unit": "%"}, {"measurement": "Percent bound at 8.74 μM 16742 conc", "setting": "CK1e; CK1e, EXPERIMENT 1", "result": 34.02, "unit": "%"}, {"measurement": "Percent bound at 52 μM 16742 conc", "setting": "CK1e; CK1e, EXPERIMENT 1", "result": 79.64, "unit": "%"}, {"measurement": "Percent bound at 1.87 μM 16742 conc", "setting": "CK1e; CK1e, EXPERIMENT 2", "result": 7.41, "unit": "%"}, {"measurement": "Percent bound at 8.74 μM 16742 conc", "setting": "CK1e; CK1e, EXPERIMENT 2", "result": 37.16, "unit": "%"}, {"measurement": "Percent bound at 52 μM 16742 conc", "setting": "CK1e; CK1e, EXPERIMENT 2", "result": 88.21, "unit": "%"}, {"measurement": "Kd", "setting": "CK1e; Kd, CK1e", "result": 14.5, "unit": "µM"}, {"measurement": "Kd", "setting": "CK1e; Kd, CK1e, EXPERIMENT 1", "result": 16.1, "unit": "µM"}]}
{"smiles": "COc1cc2ncnc(Nc3ccc(F)c(Cl)c3)c2cc1OCCCN1CCOCC1", "note": "[gefitinib]", "values": [{"measurement": "rAVERAGE (10 nM/0 nM Gef.)", "setting": "[1]", "result": 0.88}, {"measurement": "rAVERAGE (100 nM/0 nM Gef.)", "setting": "[1]", "result": 1.04}, {"measurement": "rAVERAGE (1000 nM/0 nM Gef.)", "setting": "[1]", "result": 0.92}, {"measurement": "rAVERAGE (10000 nM/0 nM Gef.)", "setting": "[1]", "result": 0.64}, {"measurement": "rAVERAGE (10 nM/0 nM Gef.)", "setting": "CaMK2g (CAMK2G)", "result": 0.95}, {"measurement": "rAVERAGE (100 nM/0 nM Gef.)", "setting": "CaMK2g (CAMK2G)", "result": 1.08}, {"measurement": "rAVERAGE (1000 nM/0 nM Gef.)", "setting": "CaMK2g (CAMK2G)", "result": 1.01}, {"measurement": "rAVERAGE (10000 nM/0 nM Gef.)", "setting": "CaMK2g (CAMK2G)", "result": 0.92}, {"measurement": "rAVERAGE (10 nM/0 nM Gef.)", "setting": "ACAD10", "result": 1.17}, {"measurement": "rAVERAGE (100 nM/0 nM Gef.)", "setting": "ACAD10", "result": 0.86}, {"measurement": "rAVERAGE (1000 nM/0 nM Gef.)", "setting": "ACAD10", "result": 1.07}, {"measurement": "rAVERAGE (10000 nM/0 nM Gef.)", "setting": "ACAD10", "result": 0.24}, {"measurement": "rAVERAGE (10 nM/0 nM Gef.)", "setting": "CK1e (CSNK1E)", "result": 0.80}, {"measurement": "rAVERAGE (100 nM/0 nM Gef.)", "setting": "CK1e (CSNK1E)", "result": 1.00}, {"measurement": "rAVERAGE (1000 nM/0 nM Gef.)", "setting": "CK1e (CSNK1E)", "result": 0.84}, {"measurement": "rAVERAGE (10000 nM/0 nM Gef.)", "setting": "CK1e (CSNK1E)", "result": 0.59}]}
